Measured values published in the NIST ThermoML archive (doi:10.1016/j.jct.2015.05.011).
± gives the expanded uncertainty stated by the source.

What was measured:
[1] = xn = mol fraction of the nth substance listed; settings: 100 kPa, Liquid; for mass density: Vibrating tube method; for viscosity: Falling or rolling sphere viscometry
[2] = refractive index (Na D-line) (dimensionless); xn = mol fraction of the nth substance listed; settings: 298.15 K, 100 kPa, Liquid, Standard Abbe refractometry
[3] = excess molar enthalpy (molar enthalpy of mixing); xn = mol fraction of the nth substance listed; settings: 100 kPa, Liquid, Flow calorimetry

`CCn1cc[n+](C)c1.N#C[C-](C#N)C#N` [1-ethyl-3-methyl-1H-imidazolium tricyanomethanide] + O showed a mass density ([1]; 288.15 K, x1 = 0.000486) of 999.748 ± 0.11 kg/m3, a mass density ([1]; 288.15 K, x1 = 0.000971) of 1000.38 ± 0.11 kg/m3 and a mass density ([1]; 288.15 K, x1 = 0.001456) of 1000.99 ± 0.11 kg/m3. It also gave a mass density ([1]; 288.15 K, x1 = 0.001941) of 1001.57 ± 0.11 kg/m3, a mass density ([1]; 288.15 K, x1 = 0.002425) of 1002.13 ± 0.11 kg/m3 and a mass density ([1]; 288.15 K, x1 = 0.002908) of 1002.68 ± 0.11 kg/m3. It also gave a viscosity ([1]; 298.15 K, x2 = 0) of 14 ± 0.3 mPa·s, a viscosity ([1]; 298.15 K, x2 = 0.1084) of 11.85 ± 0.25 mPa·s and a viscosity ([1]; 298.15 K, x2 = 0.2059) of 10.11 ± 0.22 mPa·s. It also gave a viscosity ([1]; 298.15 K, x2 = 0.3058) of 8.35 ± 0.18 mPa·s, a viscosity ([1]; 298.15 K, x2 = 0.4145) of 7.05 ± 0.15 mPa·s and a viscosity ([1]; 298.15 K, x2 = 0.5128) of 5.88 ± 0.13 mPa·s. It also gave a viscosity ([1]; 298.15 K, x2 = 0.6095) of 4.89 ± 0.1 mPa·s, a viscosity ([1]; 298.15 K, x2 = 0.7065) of 3.98 ± 0.08 mPa·s and a viscosity ([1]; 298.15 K, x2 = 0.789) of 3.24 ± 0.07 mPa·s. For the same compound, the viscosity ([1]; 298.15 K, x2 = 0.9015) was 2.16 ± 0.05 mPa·s, the viscosity ([1]; 298.15 K, x2 = 0.9513) was 1.58 ± 0.03 mPa·s and the viscosity ([1]; 298.15 K, x2 = 0.9869) was 1.07 ± 0.02 mPa·s. The mass density ([1]; 298.15 K, x1 = 0.000486) was 997.586 ± 0.11 kg/m3, the mass density ([1]; 298.15 K, x1 = 0.000971) was 998.133 ± 0.11 kg/m3 and the mass density ([1]; 298.15 K, x1 = 0.001455) was 998.652 ± 0.11 kg/m3. The mass density ([1]; 298.15 K, x1 = 0.00194) was 999.158 ± 0.11 kg/m3, the mass density ([1]; 298.15 K, x1 = 0.002423) was 999.648 ± 0.11 kg/m3 and the mass density ([1]; 298.15 K, x1 = 0.002907) was 1000.12 ± 0.11 kg/m3. For the same compound, the mass density ([1]; 298.15 K, x2 = 0) was 1081.38 ± 0.15 kg/m3, the mass density ([1]; 298.15 K, x2 = 0.1084) was 1079.85 ± 0.15 kg/m3 and the mass density ([1]; 298.15 K, x2 = 0.2059) was 1078.28 ± 0.14 kg/m3. For the same compound, the mass density ([1]; 298.15 K, x2 = 0.3058) was 1076.34 ± 0.14 kg/m3, the mass density ([1]; 298.15 K, x2 = 0.4145) was 1073.8 ± 0.13 kg/m3 and the mass density ([1]; 298.15 K, x2 = 0.5128) was 1070.97 ± 0.13 kg/m3. It also gave a mass density ([1]; 298.15 K, x2 = 0.6095) of 1067.4 ± 0.13 kg/m3, a mass density ([1]; 298.15 K, x2 = 0.7065) of 1062.54 ± 0.12 kg/m3 and a mass density ([1]; 298.15 K, x2 = 0.789) of 1056.44 ± 0.12 kg/m3. For the same compound, the mass density ([1]; 298.15 K, x2 = 0.9015) was 1040.72 ± 0.12 kg/m3, the mass density ([1]; 298.15 K, x2 = 0.9513) was 1026.4 ± 0.12 kg/m3 and the mass density ([1]; 298.15 K, x2 = 0.9869) was 1008.32 ± 0.12 kg/m3. The mass density ([1]; 308.15 K, x1 = 0.000485) was 994.509 ± 0.11 kg/m3, the mass density ([1]; 308.15 K, x1 = 0.00097) was 994.981 ± 0.11 kg/m3 and the mass density ([1]; 308.15 K, x1 = 0.001455) was 995.435 ± 0.11 kg/m3. The mass density ([1]; 308.15 K, x1 = 0.001939) was 995.873 ± 0.11 kg/m3, the mass density ([1]; 308.15 K, x1 = 0.002423) was 996.296 ± 0.11 kg/m3 and the mass density ([1]; 308.15 K, x1 = 0.002906) was 996.708 ± 0.11 kg/m3. The mass density ([1]; 318.15 K, x1 = 0.000485) was 990.626 ± 0.11 kg/m3, the mass density ([1]; 318.15 K, x1 = 0.00097) was 991.036 ± 0.11 kg/m3 and the mass density ([1]; 318.15 K, x1 = 0.001455) was 991.43 ± 0.11 kg/m3. It also gave a mass density ([1]; 318.15 K, x1 = 0.001939) of 991.809 ± 0.11 kg/m3, a mass density ([1]; 318.15 K, x1 = 0.002422) of 992.176 ± 0.11 kg/m3 and a mass density ([1]; 318.15 K, x1 = 0.002905) of 992.534 ± 0.11 kg/m3. It also gave a refractive index ([2]; x2 = 0) of 1.51227 ± 0.00036, a refractive index ([2]; x2 = 0.1084) of 1.50965 ± 0.00036 and a refractive index ([2]; x2 = 0.2059) of 1.50681 ± 0.00036. For the same compound, the refractive index ([2]; x2 = 0.3058) was 1.50438 ± 0.00036, the refractive index ([2]; x2 = 0.4145) was 1.49961 ± 0.00035 and the refractive index ([2]; x2 = 0.5128) was 1.49477 ± 0.00035. The refractive index ([2]; x2 = 0.6095) was 1.487 ± 0.00035, the refractive index ([2]; x2 = 0.7065) was 1.4765 ± 0.00035 and the refractive index ([2]; x2 = 0.789) was 1.46324 ± 0.00035. It also gave a refractive index ([2]; x2 = 0.9015) of 1.42697 ± 0.00035, a refractive index ([2]; x2 = 0.9513) of 1.39433 ± 0.00036 and a refractive index ([2]; x2 = 0.9869) of 1.35455 ± 0.00037. The excess molar enthalpy ([3]; 288.15 K, x1 = 0.000486) was 0.00123 ± 0.000196 kcal/mol, the excess molar enthalpy ([3]; 288.15 K, x1 = 0.000971) was 0.00258 ± 0.000215 kcal/mol and the excess molar enthalpy ([3]; 288.15 K, x1 = 0.001456) was 0.00395 ± 0.000263 kcal/mol. The excess molar enthalpy ([3]; 288.15 K, x1 = 0.001941) was 0.0053 ± 0.000311 kcal/mol, the excess molar enthalpy ([3]; 288.15 K, x1 = 0.002425) was 0.00668 ± 0.000359 kcal/mol and the excess molar enthalpy ([3]; 288.15 K, x1 = 0.002908) was 0.00806 ± 0.000406 kcal/mol. For the same compound, the excess molar enthalpy ([3]; 298.15 K, x1 = 0.000486) was 0.00143 ± 0.000196 kcal/mol, the excess molar enthalpy ([3]; 298.15 K, x1 = 0.000971) was 0.00297 ± 0.000227 kcal/mol and the excess molar enthalpy ([3]; 298.15 K, x1 = 0.001455) was 0.0045 ± 0.000263 kcal/mol. It also gave an excess molar enthalpy ([3]; 298.15 K, x1 = 0.00194) of 0.00603 ± 0.000335 kcal/mol, an excess molar enthalpy ([3]; 298.15 K, x1 = 0.002423) of 0.00756 ± 0.000382 kcal/mol and an excess molar enthalpy ([3]; 298.15 K, x1 = 0.002907) of 0.00907 ± 0.000454 kcal/mol. It also gave an excess molar enthalpy ([3]; 308.15 K, x1 = 0.000485) of 0.00166 ± 0.000198 kcal/mol, an excess molar enthalpy ([3]; 308.15 K, x1 = 0.00097) of 0.00339 ± 0.000239 kcal/mol and an excess molar enthalpy ([3]; 308.15 K, x1 = 0.001455) of 0.00511 ± 0.000287 kcal/mol. The excess molar enthalpy ([3]; 308.15 K, x1 = 0.001939) was 0.00682 ± 0.000359 kcal/mol, the excess molar enthalpy ([3]; 308.15 K, x1 = 0.002423) was 0.00851 ± 0.00043 kcal/mol and the excess molar enthalpy ([3]; 308.15 K, x1 = 0.002906) was 0.0102 ± 0.000478 kcal/mol. For the same compound, the excess molar enthalpy ([3]; 318.15 K, x1 = 0.000485) was 0.00184 ± 0.000201 kcal/mol, the excess molar enthalpy ([3]; 318.15 K, x1 = 0.00097) was 0.00377 ± 0.000239 kcal/mol and the excess molar enthalpy ([3]; 318.15 K, x1 = 0.001455) was 0.00569 ± 0.000311 kcal/mol. For the same compound, the excess molar enthalpy ([3]; 318.15 K, x1 = 0.001939) was 0.00759 ± 0.000382 kcal/mol, the excess molar enthalpy ([3]; 318.15 K, x1 = 0.002422) was 0.00945 ± 0.000454 kcal/mol and the excess molar enthalpy ([3]; 318.15 K, x1 = 0.002905) was 0.0113 ± 0.000526 kcal/mol.
